Measurements published in DBAASP.
In brackets after ≈: the same amount, converted by molar mass.

Legend:
Assay in all cases: ≥ marks a high value that may be exact or a test limit, other limits are often not marked, values filed in µg/mL are converted to µM
[1] = tested on: Acinetobacter baumannii CCARM 12005
[2] = tested on: Acinetobacter baumannii CCARM 12035
[3] = tested on: Acinetobacter baumannii CCARM 12036
[4] = tested on: Acinetobacter baumannii CCARM 12037
[5] = tested on: Bacillus subtilis KCTC 1021
[6] = tested on: Bacillus subtilis KCTC 1022
[7] = tested on: Bacillus subtilis KCTC 3068
[8] = tested on: Escherichia coli CCARM 1229
[9] = tested on: Escherichia coli CCARM 1238
[10] = tested on: Escherichia coli KCTC 1682
[11] = tested on: Escherichia coli KCTC 2571
[12] = tested on: Escherichia coli KCTC 2593
[13] = tested on: Pseudomonas aeruginosa CCARM 2002
[14] = tested on: Pseudomonas aeruginosa CCARM 2003
[15] = tested on: Pseudomonas aeruginosa CCARM 2095
[16] = tested on: Pseudomonas aeruginosa CCARM 2163
[17] = tested on: Pseudomonas aeruginosa KCTC 1637
[18] = tested on: Pseudomonas aeruginosa KCTC 2004
[19] = tested on: Pseudomonas aeruginosa KCTC 2513
[20] = tested on: Salmonella typhimurium CCARM 8003
[21] = tested on: Salmonella typhimurium CCARM 8007
[22] = tested on: Salmonella typhimurium CCARM 8009
[23] = tested on: Salmonella typhimurium KCTC 1926
[24] = tested on: Staphylococcus aureus CCARM 3089
[25] = tested on: Staphylococcus aureus CCARM 3090
[26] = tested on: Staphylococcus aureus CCARM 3108
[27] = tested on: Staphylococcus aureus CCARM 3114
[28] = tested on: Staphylococcus aureus CCARM 3126
[29] = tested on: Staphylococcus aureus KCTC 1621
[30] = tested on: Staphylococcus aureus KCTC 1916
[31] = tested on: Staphylococcus aureus KCTC 3881
[32] = tested on: Staphylococcus epidermidis KCTC 1917

Row | Structure (SMILES) | MIC [1] [µM] | MIC [2] [µM] | MIC [3] [µM] | MIC [4] [µM] | MIC [5] [µM] | MIC [6] [µM] | MIC [7] [µM] | MIC [8] [µM] | MIC [9] [µM] | MIC [10] [µM] | MIC [11] [µM] | MIC [12] [µM] | MIC [13] [µM] | MIC [14] [µM] | MIC [15] [µM] | MIC [16] [µM] | MIC [17] [µM] | MIC [18] [µM] | MIC [19] [µM] | MIC [20] [µM] | other results
1 | CC[C@H](C)[C@H](NC(=O)CNC(=O)[C@H](CCCN=C(N)N)NC(=O)[C@H](C)NC(=O)[C@@H](NC(=O)[C@H](Cc1cnc[nH]1)NC(=O)[C@H](Cc1cnc[nH]1)NC(=O)[C@H](Cc1ccccc1)NC(=O)[C@@H](N)Cc1ccccc1)[C@@H](C)CC)C(=O)N[C@H](C(=O)N[C@@H](Cc1cnc[nH]1)C(=O)N[C@H](C(=O)NCC(=O)N[C@@H](CCCCN)C(=O)N[C@H](C(=O)N[C@H](C(=O)N[C@@H](Cc1cnc[nH]1)C(=O)N[C@@H](CCCN=C(N)N)C(=O)N[C@@H](CC(C)C)C(=O)N[C@H](C(=O)N[C@H](C(=O)NCC(=O)O)[C@@H](C)O)C(C)C)[C@@H](C)CC)[C@@H](C)O)C(C)C)C(C)C [FFHHIARGIVHVGKTIHRLVTG] | 4 (≈ 9.98 µg/mL) | 4 (≈ 9.98 µg/mL) | 4 (≈ 9.98 µg/mL) | 4 (≈ 9.98 µg/mL) | 16 (≈ 39.9 µg/mL) | 2 (≈ 4.99 µg/mL) | 4 (≈ 9.98 µg/mL) | ≥ 32 | ≥ 32 | 2 (≈ 4.99 µg/mL) | 4 (≈ 9.98 µg/mL) | 2 (≈ 4.99 µg/mL) | 4 (≈ 9.98 µg/mL) | 4 (≈ 9.98 µg/mL) | 4 (≈ 9.98 µg/mL) | 4 (≈ 9.98 µg/mL) | 4 (≈ 9.98 µg/mL) | 8 (≈ 20 µg/mL) | 16 (≈ 39.9 µg/mL) | ≥ 32 | MIC [21]: 16 µM (≈ 39.9 µg/mL); MIC [22]: 16 µM (≈ 39.9 µg/mL); MIC [23]: 16 µM (≈ 39.9 µg/mL); MIC [24]: ≥ 32 µM; MIC [25]: ≥ 32 µM; MIC [26]: 16 µM (≈ 39.9 µg/mL); MIC [27]: 16 µM (≈ 39.9 µg/mL); MIC [28]: 16 µM (≈ 39.9 µg/mL); MIC [29]: 4 µM (≈ 9.98 µg/mL); MIC [30]: 2 µM (≈ 4.99 µg/mL); MIC [31]: 4 µM (≈ 9.98 µg/mL); MIC [32]: 4 µM (≈ 9.98 µg/mL)
2 | CC[C@H](C)[C@H](NC(=O)CNC(=O)[C@H](CCCN=C(N)N)NC(=O)[C@H](Cc1ccccc1)NC(=O)[C@@H](NC(=O)[C@H](Cc1cnc[nH]1)NC(=O)[C@H](Cc1cnc[nH]1)NC(=O)[C@H](CCCCN)NC(=O)[C@@H](N)Cc1ccccc1)[C@@H](C)CC)C(=O)N[C@H](C(=O)N[C@@H](Cc1cnc[nH]1)C(=O)N[C@H](C(=O)NCC(=O)N[C@@H](CCCCN)C(=O)N[C@H](C(=O)N[C@H](C(=O)N[C@@H](Cc1cnc[nH]1)C(=O)N[C@@H](CCCN=C(N)N)C(=O)N[C@@H](CC(C)C)C(=O)N[C@H](C(=O)N[C@H](C(=O)NCC(=O)O)[C@@H](C)O)C(C)C)[C@@H](C)CC)[C@@H](C)O)C(C)C)C(C)C [FKHHIFRGIVHVGKTIHRLVTG] | 2 (≈ 5.11 µg/mL) | 2 (≈ 5.11 µg/mL) | 2 (≈ 5.11 µg/mL) | 2 (≈ 5.11 µg/mL) | 4 (≈ 10.2 µg/mL) | 1 (≈ 2.55 µg/mL) | 4 (≈ 10.2 µg/mL) | 16 (≈ 40.8 µg/mL) | 16 (≈ 40.8 µg/mL) | 4 (≈ 10.2 µg/mL) | 2 (≈ 5.11 µg/mL) | 2 (≈ 5.11 µg/mL) | 2 (≈ 5.11 µg/mL) | 2 (≈ 5.11 µg/mL) | 2 (≈ 5.11 µg/mL) | 2 (≈ 5.11 µg/mL) | 4 (≈ 10.2 µg/mL) | 8 (≈ 20.4 µg/mL) | 8 (≈ 20.4 µg/mL) | 16 (≈ 40.8 µg/mL) | MIC [21]: 16 µM (≈ 40.8 µg/mL); MIC [22]: 16 µM (≈ 40.8 µg/mL); MIC [23]: 8 µM (≈ 20.4 µg/mL); MIC [24]: 16 µM (≈ 40.8 µg/mL); MIC [25]: 16 µM (≈ 40.8 µg/mL); MIC [26]: 16 µM (≈ 40.8 µg/mL); MIC [27]: 16 µM (≈ 40.8 µg/mL); MIC [28]: 16 µM (≈ 40.8 µg/mL); MIC [29]: 4 µM (≈ 10.2 µg/mL); MIC [30]: 2 µM (≈ 5.11 µg/mL); MIC [31]: 2 µM (≈ 5.11 µg/mL); MIC [32]: 2 µM (≈ 5.11 µg/mL)
